Experimental data: article PMC6749364, “Pharmacokinetics and Tissue Distribution of Alnustone in Rats after Intravenous Administration by Liquid Chromatography-Mass Spectrometry” (Molecules, 2019)

Assays:
[1] = obtained by our previous pharmacological experiment; cited from earlier work
[2] = system: Bel-7402 (human hepatocellular carcinoma cells); design: method as in earlier work; settings: Bel-7402 cell line; cited from earlier work
neuraminidase = system: neuraminidase; design: method as in PMID 20014777; settings: cited from earlier work
[3] = Tissue distribution study after intravenous administration; format: in vivo, Sprague-Dawley rats; settings: rats, i.v. 5 mg/kg; for Kp at 0.5 h / Kp at 1 h / Kp at 4 h / Kp at 2 h: n = 5
Description: The rat was sacrificed quickly by decapitation on the ice. The various tissues (heart, liver, spleen, lung, kidney, brain, stomach, intestine) were harvested and rinsed with ice-cold 0.9% NaCl to remove the superficial blood. After being blotted dry with filter paper, each tissue sample was weighed on ice and physiological saline added ([…]) to homogenize. Then, a 100 μL (equivalent to 50 mg) of tissue homogenate was taken and processed using the same method as the plasma samples processing method as shown in the above steps.
The mobile phase consisted of methanol and 0.1% formic acid water using a gradient dilution at a flow rate of 0.3 mL/min. The column temperature was maintained at 30 °C. Alnustone was quantitatively determined with MRM in the positive ion mode, and nitrogen was used to assist nebulization in the ESI source. The MS parameters were set as follows: The ionspray voltage (IS) 5500 V; nebulizer gas (gas 1) 19 arbitrary units; curtain gas (CUR) 10 arbitrary units; collision cell exit potential (CXP) 7.0 V; entrance potential (EP) 10.0 V. The optimization of the MS transitions using the multiple-reaction monitoring (MRM) mode were accomplished as alnustone m/z 262.9→105.2 and IS (caffeine) m/z 195.2→138.0, respectively.
For the tissue distribution study, 20 SD rats were randomly divided into four groups (5 rats for each time point) and fasted for 12 h with free access to water prior to administration. After the rats were tail intravenously administrated of alnustone (5 mg/kg), the tissue specimens (heart, liver, spleen, lung, kidney, brain, stomach and intestine) were collected at 0.5, 1, 2, and 4 h post-dosing, respectively. The blank tissues were prepared separately using drug-free SD rats. The tissue harvesting and homogenizing method were given in Section 3.5. For the plasma and tissue homogenate sample preparation method, also see Section 3.5.

[4] = Sprague-Dawley, rat, iv, Intestine
[5] = Sprague-Dawley, rat, iv, Kidney
[6] = Sprague-Dawley, rat, iv, Spleen
[7] = Sprague-Dawley, rat, iv, Stomach

In the case of O=C(/C=C/C=C/c1ccccc1)CCc1ccccc1 [alnustone, Alnustone], the LD50 [1] is listed as 200 mg/kg, the “antitumor activity in vitro” value [2] is listed as “significant antitumor activity” and the neuraminidase inhibitory activity (neuraminidase) is listed as “showed neuraminidase inhibitory activity”. For the same molecule, the Kp at 0.5 h ([3]; Sprague-Dawley, rat, iv, Brain) was 0.11 ± 0.4, the Kp at 1 h ([3]; Sprague-Dawley, rat, iv, Brain) was 0.21 ± 0.56 and the Kp at 4 h ([3]; Sprague-Dawley, rat, iv, Brain, 4 h) was 1.03 ± 0.08. It also gave a Kp at 0.5 h ([3]; Sprague-Dawley, rat, iv, Heart) of 0.36 ± 0.06, a Kp at 1 h ([3]; Sprague-Dawley, rat, iv, Heart) of 0.42 ± 0.1 and a Kp at 2 h ([3]; Sprague-Dawley, rat, iv, Heart) of 0.59 ± 0.17. It also gave a Kp at 4 h ([3]; Sprague-Dawley, rat, iv, Heart, 4 h) of 1.78 ± 0.24, a Kp at 0.5 h [3, 4] of 0.39 ± 0.07 and a Kp at 1 h [3, 4] of 0.66 ± 0.12. The Kp at 2 h [3, 4] was 0.88 ± 0.19, the Kp at 4 h ([3]; Sprague-Dawley, rat, iv, Intestine, 4 h) was 1.18 ± 0.2 and the Kp at 0.5 h [3, 5] was 0.58 ± 0.07. The Kp at 1 h [3, 5] was 0.74 ± 0.11, the Kp at 2 h [3, 5] was 1.49 ± 0.27 and the Kp at 4 h ([3]; Sprague-Dawley, rat, iv, Kidney, 4 h) was 1.86 ± 0.18. It also gave a Kp at 0.5 h ([3]; Sprague-Dawley, rat, iv, Liver) of 1.28 ± 0.34, a Kp at 1 h ([3]; Sprague-Dawley, rat, iv, Liver) of 1.31 ± 0.18 and a Kp at 2 h ([3]; Sprague-Dawley, rat, iv, Liver) of 1.28 ± 0.29. For the same molecule, the Kp at 4 h ([3]; Sprague-Dawley, rat, iv, Liver, 4 h) was 5.48 ± 0.66, the Kp at 0.5 h ([3]; Sprague-Dawley, rat, iv, Lung) was 1.3 ± 0.09 and the Kp at 1 h ([3]; Sprague-Dawley, rat, iv, Lung) was 3.39 ± 0.39. It also gave a Kp at 2 h ([3]; Sprague-Dawley, rat, iv, Lung) of 4.55 ± 0.61, a Kp at 4 h ([3]; Sprague-Dawley, rat, iv, Lung, 4 h) of 15.8 ± 1.33 and a Kp at 0.5 h [3, 6] of 0.46 ± 0.06. The Kp at 1 h [3, 6] was 1.24 ± 0.13, the Kp at 2 h [3, 6] was 0.7 ± 0.06 and the Kp at 4 h ([3]; Sprague-Dawley, rat, iv, Spleen, 4 h) was 1.54 ± 0.32. It also gave a Kp at 0.5 h [3, 7] of 0.64 ± 0.14, a Kp at 1 h [3, 7] of 0.52 ± 0.11 and a Kp at 2 h [3, 7] of 0.7 ± 0.03. The Kp at 4 h ([3]; Sprague-Dawley, rat, iv, Stomach, 4 h) was 3.66 ± 0.27, the concentration at 4 h ([3]; Sprague-Dawley, rat, iv, brain, 4 h) was 567 ng/mL and the “highest mean concentration in tissue” value ([3]; brain) was 344.27 ng/g. For the same molecule, the “time of maximum tissue concentration” value ([3]; brain) was 1 h, the “highest mean concentration in tissue” value ([3]; heart) was 900.97 ng/g and the “highest mean concentration in tissue” value ([3]; intestine) was 1099.14 ng/g. For the same molecule, the “time of maximum tissue concentration” value ([3]; intestine) was 1 h, the “highest mean concentration in tissue” value ([3]; kidney) was 1450.43 ng/g and the “highest mean concentration in tissue” value ([3]; liver) was 3199.49 ng/g. For the same molecule, the “highest mean concentration in tissue” value ([3]; lung) was 5685.40 ng/g, the “time of maximum tissue concentration” value ([3]; lung) was 1 h and the blood-brain barrier penetration [3] was “could enter the brain through the blood-brain barrier”. For the same molecule, the “highest mean concentration in tissue” value ([3]; spleen) was 2077.14 ng/g, the “time of maximum tissue concentration” value ([3]; spleen) was 1 h and the “highest mean concentration in tissue” value ([3]; stomach) was 1588.90 ng/g.
